Test results: US10413535B2, “Pharmaceutical compositions comprising an integrin ALPHA4 antagonist for use in treating ocular inflammatory conditions” (AXEROVISION, INC., priority 2015, dated 2019)
Read-outs that look alike come from different tables or passages of the source.

Experiment: Toxicokinetics in 13-week topical ocular dog study
Settings: in vivo, topical or ocular
Experimental: GW559090A was given to Beagle Dogs by topical ocular administration for 13 weeks. Animals were dosed six or twelve times per day, with one hour between doses. Treatment groups were: (1) vehicle (12 times a day), (2) 30 mg/mL/occasion given six times a day, (3) 50 mg/mL/occasion given six times a day, or (4) 50 mg/mL/occasion, given 12 times a day.
GW559090A was formulated as a stock solution in 25 mM phosphate buffer with 0.5% sodium chloride to provide a 50 mg/mL stock solution, which was used for administration to Groups 3 or 4, or further diluted with 25 mM phosphate buffer with 0.75% sodium chloride to provide a 30 mg/mL solution for administration to Group 2.
During the 13 week treatment period dogs received daily topical ocular doses of GW559090 or vehicle (12 times a day) at a constant dose volume of 0.06 mL (given 6 or 12 times a day, with one hour between doses). The test article formulation or vehicle was carefully dropped into the everted lower eyelid of the left eye from a suitable distance, to prevent contact of the positive displacement pipette with the eye. The lower and upper lids were then gently held together for approximately five seconds, to prevent loss of dose and aid even distribution across the external ocular surface. The un-dosed eye was not manipulated at any time and served as a within animal untreated control site.

In the case of Cc1ccccc1OCC(=O)N[C@@H](CC(C)C)C(=O)N[C@@H](Cc1ccc(OC(=O)N2CCC(C(N)=O)CC2)cc1)C(=O)O [GW559090, (2S)-3-[4-({[4-(Aminocarbonyl)-1-piperidinyl]carbonyl}oxy)phenyl]-2-[((2S)-4-methyl-2-{[2-(2-methylphenoxy)acetyl]amino}pentanoyl)amino]propanoic acid], the AUC(0-t) (both sexes, Beagle, 50 mg/mL/occasion, dogs, males and females combined, 50 mg/mL/occasion 12 times a day, Week 13, read-out: AUC0-1 exposure at NOAEL) is reported as 11.2 ng·h/mL, the Estimated AUC0-24 (both sexes, Beagle, 50 mg/mL/occasion, dogs, males and females combined, 50 mg/mL/occasion 12 times a day, Week 13, read-out: Estimated AUC0-24 at NOAEL) is reported as 134 ng·h/mL and the Cmax (both sexes, Beagle, dogs, males and females combined, 50 mg/mL/occasion 12 times a day, Week 13, read-out: Cmax at NOAEL) is reported as 28.7 ng/mL. The Tmax (female, beagle, 30 mg/mL/occasion, female dogs, 30 mg/mL, 6 daily doses, Day 1) was 30 min, the AUC(0-t) (female, beagle, 30 mg/mL/occasion, female dogs, 30 mg/mL, 6 daily doses, Day 1, read-out: AUC0-1) was 5.27 ng·h/mL and the AUC(0-t) (female, beagle, 30 mg/mL/occasion, female dogs, 30 mg/mL, 6 daily doses, Day 1, read-out: AUC0-24) was 31.6 ng·h/mL. The Cmax (female, beagle, 30 mg/mL/occasion, female dogs, 30 mg/mL, 6 daily doses, Day 1, read-out: Cmax) was 12.2 ng/mL, the Tmax (female, beagle, 30 mg/mL/occasion, female dogs, 30 mg/mL, 6 daily doses, Week 4) was 22.5 min and the AUC(0-t) (female, beagle, 30 mg/mL/occasion, female dogs, 30 mg/mL, 6 daily doses, Week 4, read-out: AUC0-1) was 4.28 ng·h/mL. It also gave an AUC(0-t) (female, beagle, 30 mg/mL/occasion, female dogs, 30 mg/mL, 6 daily doses, Week 4, read-out: AUC0-24) of 25.7 ng·h/mL, a Cmax (female, beagle, 30 mg/mL/occasion, female dogs, 30 mg/mL, 6 daily doses, Week 4, read-out: Cmax) of 9.34 ng/mL and a Tmax (female, beagle, 30 mg/mL/occasion, female dogs, 30 mg/mL, 6 daily doses, Week 13) of 15 min. For the same molecule, the AUC(0-t) (female, beagle, 30 mg/mL/occasion, female dogs, 30 mg/mL, 6 daily doses, Week 13, read-out: AUC0-1) was 6.05 ng·h/mL, the AUC(0-t) (female, beagle, 30 mg/mL/occasion, female dogs, 30 mg/mL, 6 daily doses, Week 13, read-out: AUC0-24) was 36.3 ng·h/mL and the Cmax (female, beagle, 30 mg/mL/occasion, female dogs, 30 mg/mL, 6 daily doses, Week 13, read-out: Cmax) was 17.5 ng/mL. It also gave a Tmax (female, beagle, 50 mg/mL/occasion, female dogs, 50 mg/mL, 6 daily doses, Day 1) of 15 min, an AUC(0-t) (female, beagle, 50 mg/mL/occasion, female dogs, 50 mg/mL, 6 daily doses, Day 1, read-out: AUC0-1) of 8.79 ng·h/mL and an AUC(0-t) (female, beagle, 50 mg/mL/occasion, female dogs, 50 mg/mL, 6 daily doses, Day 1, read-out: AUC0-24) of 52.7 ng·h/mL. The Cmax (female, beagle, 50 mg/mL/occasion, female dogs, 50 mg/mL, 6 daily doses, Day 1, read-out: Cmax) was 17 ng/mL, the Tmax (female, beagle, 50 mg/mL/occasion, female dogs, 50 mg/mL, 6 daily doses, Week 4) was 15 min and the AUC(0-t) (female, beagle, 50 mg/mL/occasion, female dogs, 50 mg/mL, 6 daily doses, Week 4, read-out: AUC0-1) was 5.26 ng·h/mL. For the same molecule, the AUC(0-t) (female, beagle, 50 mg/mL/occasion, female dogs, 50 mg/mL, 6 daily doses, Week 4, read-out: AUC0-24) was 31.6 ng·h/mL, the Cmax (female, beagle, 50 mg/mL/occasion, female dogs, 50 mg/mL, 6 daily doses, Week 4, read-out: Cmax) was 11.4 ng/mL and the Tmax (female, beagle, 50 mg/mL/occasion, female dogs, 50 mg/mL, 6 daily doses, Week 13) was 10 min. The AUC(0-t) (female, beagle, 50 mg/mL/occasion, female dogs, 50 mg/mL, 6 daily doses, Week 13, read-out: AUC0-1) was 6.64 ng·h/mL, the AUC(0-t) (female, beagle, 50 mg/mL/occasion, female dogs, 50 mg/mL, 6 daily doses, Week 13, read-out: AUC0-24) was 39.8 ng·h/mL and the Cmax (female, beagle, 50 mg/mL/occasion, female dogs, 50 mg/mL, 6 daily doses, Week 13, read-out: Cmax) was 17.9 ng/mL. For the same molecule, the Tmax (female, beagle, 50 mg/mL/occasion, female dogs, 50 mg/mL, 12 daily doses, Day 1) was 30 min, the AUC(0-t) (female, beagle, 50 mg/mL/occasion, female dogs, 50 mg/mL, 12 daily doses, Day 1, read-out: AUC0-1) was 12.8 ng·h/mL and the AUC(0-t) (female, beagle, 50 mg/mL/occasion, female dogs, 50 mg/mL, 12 daily doses, Day 1, read-out: AUC0-24) was 153 ng·h/mL. The Cmax (female, beagle, 50 mg/mL/occasion, female dogs, 50 mg/mL, 12 daily doses, Day 1, read-out: Cmax) was 21.8 ng/mL, the Tmax (female, beagle, 50 mg/mL/occasion, female dogs, 50 mg/mL, 12 daily doses, Week 4) was 10 min and the AUC(0-t) (female, beagle, 50 mg/mL/occasion, female dogs, 50 mg/mL, 12 daily doses, Week 4, read-out: AUC0-1) was 6.77 ng·h/mL. The AUC(0-t) (female, beagle, 50 mg/mL/occasion, female dogs, 50 mg/mL, 12 daily doses, Week 4, read-out: AUC0-24) was 81.2 ng·h/mL, the Cmax (female, beagle, 50 mg/mL/occasion, female dogs, 50 mg/mL, 12 daily doses, Week 4, read-out: Cmax) was 14.5 ng/mL and the Tmax (female, beagle, 50 mg/mL/occasion, female dogs, 50 mg/mL, 12 daily doses, Week 13) was 15 min. The AUC(0-t) (female, beagle, 50 mg/mL/occasion, female dogs, 50 mg/mL, 12 daily doses, Week 13, read-out: AUC0-1) was 12.1 ng·h/mL.
